In patent US4713457A, “Ergoline derivatives and acid addition salts thereof” (priority 1985, dated 1987):
Structures can show the parent of a compound that is named as a salt.

Experiments:
[1] = test system: unanesthetized spontaneously hypertensive rats; experiment: Heart rate determined simultaneously with blood pressure (sphygmometer connected to the pulse output); format: in vivo, rat; details: 10 mg/kg oral
Method: (§1) The anti-hypertensive activity of the compounds was determined by the tail cuff method using unanesthetized spontaneously hypertensive rats weighing 300 to 350 g (21 to 25 week old). In this experiment, the systolic blood pressure was determined by the bloodless method using a hemodynamometer. The heart rate was determined simultaneously using a sphygmometer connected to the pulse output. After rats were placed under condition of 40° C. for 10 minutes, the blood pressure was determined by holding the rats in a holder. The test compounds were suspended in a 0.5 wt% aqueous gum arabic. Hydralazine hydrochloride used as a comparative agent was administered as an aqueous solution thereof. The volume of oral administration was 0.5 ml per 100 g of body weight.

[2] = test system: unanesthetized spontaneously hypertensive rats; experiment: Anti-hypertensive activity, systolic blood pressure, tail cuff method; format: in vivo, rat; details: 10 mg/kg oral
Method: as §1

[3] = test system: Rats, pylorus portion ligated (gastric secretion); experiment: Gastric secretion inhibitory activity in pylorus-ligated rats; format: in vivo, rat; details: 10 mg/kg into the duodenum
Method: Rats weighing 200 to 250 g (8 rats per group) which have been fasting for 24 hours before testing were subjected to abdominal section under ether anesthesia, and the pylorus portion was ligated. Immediately after ligation, the test compound was administered into the duodenum as a suspension in a 5 wt% aqueous gum arabic at a volume of 2 ml/kg. The rats were sacrificed after 6 hours, and the stomach was extracted. The gastric juice was collected to determine the volume thereof, and the acidity of the gastic juice was titrated to a pH 7.0 with a 0.02N aqueous sodium hydroxide solution using a pH meter. The acid secretion amount per 6 hours (μEq/6 h) was calculated by (volume of gastric juice×acidity of gastric juice).

[4] = test system: ddY male mice, KCN-induced anoxia; experiment: Activity on KCN-induced anoxia in mice; format: in vivo, mouse; details: for Survival Time / Number of Survived Mice/Total Mice: KCN 2.5 mg/kg i.v.; for Brain protection activity (in words): Table 5

SMILES: CN1C[C@H](Cn2ccnc2-c2ccccc2)C[C@@H]2c3cccc4[nH]cc(c34)C[C@H]21 [Example 13, 1-(6-Methylergolin-8β-ylmethyl)-2-phenylimidazole]
- Changes in Heart Rate ([1]; 1 hr after administration): -46 Δ/min.
- Changes in Heart Rate ([1]; 2 hrs after administration): -49 Δ/min.
- Changes in Heart Rate ([1]; 4 hrs after administration): -49 Δ/min.
- Changes in Systolic Blood Pressure ([2]; 1 hr after administration): -52 Δ mmHg
- Changes in Systolic Blood Pressure ([2]; 2 hrs after administration): -46 Δ mmHg
- Changes in Systolic Blood Pressure ([2]; 4 hrs after administration): -54 Δ mmHg
- Changes in Systolic Blood Pressure ([2]; 6 hrs after administration): -48 Δ mmHg

SMILES: CCc1nccn1C[C@@H]1C[C@@H]2c3cccc4[nH]cc(c34)C[C@H]2N(C)C1 [Example 10, 2-Ethyl-1-(6-methylergolin-8β-ylmethyl)imidazole]
- Changes in Heart Rate ([1]; 1 hr after administration): 2 Δ/min.
- Changes in Heart Rate ([1]; 2 hrs after administration): -15 Δ/min.
- Changes in Heart Rate ([1]; 4 hrs after administration): -6 Δ/min.
- Changes in Heart Rate ([1]; 6 hrs after administration): -11 Δ/min.
- Changes in Systolic Blood Pressure ([2]; 1 hr after administration): -69 Δ mmHg
- Changes in Systolic Blood Pressure ([2]; 2 hrs after administration): -64 Δ mmHg
- Changes in Systolic Blood Pressure ([2]; 4 hrs after administration): -68 Δ mmHg
- Changes in Systolic Blood Pressure ([2]; 6 hrs after administration): -66 Δ mmHg

SMILES: CN1C[C@H](CN2C(=O)CCC2=O)C[C@@H]2c3cccc4[nH]cc(c34)C[C@H]21 [Example 8, N-(6-methylergolin-8β-ylmethyl)succinimide]
- Changes in Heart Rate ([1]; 1 hr after administration): 6 Δ/min.
- Changes in Heart Rate ([1]; 2 hrs after administration): 3 Δ/min.
- Changes in Heart Rate ([1]; 4 hrs after administration): -32 Δ/min.
- Changes in Heart Rate ([1]; 6 hrs after administration): -40 Δ/min.
- Changes in Systolic Blood Pressure ([2]; 1 hr after administration): -64 Δ mmHg
- Changes in Systolic Blood Pressure ([2]; 2 hrs after administration): -77 Δ mmHg
- Changes in Systolic Blood Pressure ([2]; 4 hrs after administration): -59 Δ mmHg
- Changes in Systolic Blood Pressure ([2]; 6 hrs after administration): -66 Δ mmHg

SMILES: CN1C[C@H](Cn2cccn2)C[C@@H]2c3cccc4[nH]cc(c34)C[C@H]21 [Example 4, 1-(6-Methylergolin-8β-ylmethyl)pyrazole]
- Changes in Heart Rate ([1]; 1 hr after administration): -16 Δ/min.
- Changes in Heart Rate ([1]; 2 hrs after administration): -38 Δ/min.
- Changes in Heart Rate ([1]; 4 hrs after administration): -52 Δ/min.
- Changes in Heart Rate ([1]; 6 hrs after administration): -41 Δ/min.
- Changes in Heart Rate ([1]; 24 hrs after administration): -7 Δ/min.
- Changes in Systolic Blood Pressure ([2]; 1 hr after administration): -37 Δ mmHg
- Changes in Systolic Blood Pressure ([2]; 2 hrs after administration): -51 Δ mmHg
- Changes in Systolic Blood Pressure ([2]; 4 hrs after administration): -58 Δ mmHg
- Changes in Systolic Blood Pressure ([2]; 6 hrs after administration): -49 Δ mmHg
- Changes in Systolic Blood Pressure ([2]; 24 hrs after administration): -15 Δ mmHg

SMILES: CC(C)c1nccn1C[C@@H]1C[C@@H]2c3cccc4[nH]cc(c34)C[C@H]2N(C)C1 [Example 11, 2-Isopropyl-1-(6-methylergolin-8β-ylmethyl)imidazole]
- Changes in Heart Rate ([1]; 1 hr after administration): -37 Δ/min.
- Changes in Heart Rate ([1]; 2 hrs after administration): -21 Δ/min.
- Changes in Heart Rate ([1]; 4 hrs after administration): -24 Δ/min.
- Changes in Heart Rate ([1]; 6 hrs after administration): -46 Δ/min.
- Changes in Systolic Blood Pressure ([2]; 1 hr after administration): -53 Δ mmHg
- Changes in Systolic Blood Pressure ([2]; 2 hrs after administration): -56 Δ mmHg
- Changes in Systolic Blood Pressure ([2]; 4 hrs after administration): -54 Δ mmHg
- Changes in Systolic Blood Pressure ([2]; 6 hrs after administration): -58 Δ mmHg

SMILES: CN1C[C@H](Cn2ccnc2)C[C@@H]2c3cccc4[nH]cc(c34)C[C@H]21 [Example 1, 1-(6-Methylergolin-8β-ylmethyl)imidazole]
- Volume of Acid Secreted, Inhibition ([3]; 6 hours): 73.3%
- Volume of Gastric Juice, Inhibition ([3]; 6 hours): 67.8%
- Total Acidity ([3]; 6 hours, *p < 0.05): 62.9 ± 3.8 mEq/liter
- Changes in Heart Rate ([1]; 1 hr after administration): -39 Δ/min.
- Changes in Heart Rate ([1]; 2 hrs after administration): -56 Δ/min.
- Changes in Heart Rate ([1]; 4 hrs after administration): -25 Δ/min.
- Changes in Heart Rate ([1]; 6 hrs after administration): -58 Δ/min.
- Changes in Heart Rate ([1]; 24 hrs after administration): -44 Δ/min.
- Changes in Systolic Blood Pressure ([2]; 1 hr after administration): -78 Δ mmHg
- Changes in Systolic Blood Pressure ([2]; 2 hrs after administration): -49 Δ mmHg
- Changes in Systolic Blood Pressure ([2]; 4 hrs after administration): -48 Δ mmHg
- Changes in Systolic Blood Pressure ([2]; 6 hrs after administration): -60 Δ mmHg
- Changes in Systolic Blood Pressure ([2]; 24 hrs after administration): -14 Δ mmHg

SMILES: CN1CC(=O)N(C[C@@H]2C[C@@H]3c4cccc5[nH]cc(c45)C[C@H]3N(C)C2)C1=O [Example 3, 1-Methyl-3-(6-methylergolin-8β-ylmethyl)imidazolidin-2,4-dione]
- Volume of Acid Secreted, Inhibition ([3]; 6 hours): 52.9%
- Volume of Gastric Juice, Inhibition ([3]; 6 hours): 48.4%
- Total Acidity ([3]; 6 hours, *p < 0.05): 70.0 ± 5.3 mEq/liter
- pH of gastric juice ([3]; 6 hours, *p < 0.05): 2.07 ± 0.22
- Acid output per 6 h ([3]; *p < 0.05): 198.7 ± 34.3 μEq/6 h
- Survival Time ([4]; 10 mg/kg i.p., **p < 0.01, ***p < 0.001, survivors counted as 180 sec): 101.6 ± 17.8 s
- Number of Survived Mice/Total Mice ([4]; 10 mg/kg i.p., survived longer than 3 minutes): 2/8
- Changes in Heart Rate ([1]; 1 hr after administration): 26 Δ/min.
- Changes in Heart Rate ([1]; 2 hrs after administration): 1 Δ/min.
- Changes in Heart Rate ([1]; 4 hrs after administration): 2 Δ/min.
- Changes in Heart Rate ([1]; 6 hrs after administration): -4 Δ/min.
- Changes in Heart Rate ([1]; 24 hrs after administration): 1 Δ/min.
- Changes in Systolic Blood Pressure ([2]; 1 hr after administration): -57 Δ mmHg
- Changes in Systolic Blood Pressure ([2]; 2 hrs after administration): -66 Δ mmHg
- Changes in Systolic Blood Pressure ([2]; 4 hrs after administration): -31 Δ mmHg
- Changes in Systolic Blood Pressure ([2]; 6 hrs after administration): -27 Δ mmHg
- Changes in Systolic Blood Pressure ([2]; 24 hrs after administration): -4 Δ mmHg

SMILES: CN(C)CCOC(=O)COc1ccc(Cl)cc1 [Meclofenoxate Hydrochloride]
- Number of Survived Mice/Total Mice ([4]; 200 mg/kg i.p.): 0/6
- Survival Time ([4]; 200 mg/kg i.p.): 47.7 ± 4.4 s
- Brain protection activity (in words) [4]: did not show any significant activity

SMILES: CCOC(=O)c1ncn(C[C@@H]2C[C@@H]3c4cccc5[nH]cc(c45)C[C@H]3N(C)C2)c1C [Example 15B, ethyl 5-methyl-1-(6-methylergolin-8β-ylmethyl)-4-imidazolecarboxylate]
- Changes in Heart Rate ([1]; 1 hr after administration): -4 Δ/min.
- Changes in Heart Rate ([1]; 2 hrs after administration): 5 Δ/min.
- Changes in Heart Rate ([1]; 4 hrs after administration): -8 Δ/min.
- Changes in Heart Rate ([1]; 6 hrs after administration): -11 Δ/min.
- Changes in Systolic Blood Pressure ([2]; 2 hrs after administration): -49 Δ mmHg
- Changes in Systolic Blood Pressure ([2]; 4 hrs after administration): -59 Δ mmHg
- Changes in Systolic Blood Pressure ([2]; 6 hrs after administration): -59 Δ mmHg

SMILES: CCCc1nccn1C[C@@H]1C[C@@H]2c3cccc4[nH]cc(c34)C[C@H]2N(C)C1 [Example 12, 1-(6-Methylergolin-8β-ylmethyl)-2-propylimidazole]
- Changes in Heart Rate ([1]; 1 hr after administration): -25 Δ/min.
- Changes in Heart Rate ([1]; 2 hrs after administration): -7 Δ/min.
- Changes in Heart Rate ([1]; 4 hrs after administration): -8 Δ/min.
- Changes in Heart Rate ([1]; 6 hrs after administration): -5 Δ/min.
- Changes in Systolic Blood Pressure ([2]; 1 hr after administration): -69 Δ mmHg
- Changes in Systolic Blood Pressure ([2]; 2 hrs after administration): -59 Δ mmHg
- Changes in Systolic Blood Pressure ([2]; 4 hrs after administration): -63 Δ mmHg
- Changes in Systolic Blood Pressure ([2]; 6 hrs after administration): -59 Δ mmHg

SMILES: CC(C)(CO)[C@@H](O)C(=O)NCCCC(=O)O [Calsium Hopantenate]
- Number of Survived Mice/Total Mice ([4]; 500 mg/kg i.p.): 0/9
- Survival Time ([4]; 500 mg/kg i.p.): 43.8 ± 2.5 s
- Brain protection activity (in words) [4]: did not show any significant activity

SMILES: Cc1nccn1C[C@@H]1C[C@@H]2c3cccc4[nH]cc(c34)C[C@H]2N(C)C1 [Example 9, 2-Methyl-1-(6-methylergolin-8β-ylmethyl)imidazole]
- Changes in Heart Rate ([1]; 1 hr after administration): -12 Δ/min.
- Changes in Heart Rate ([1]; 2 hrs after administration): -27 Δ/min.
- Changes in Heart Rate ([1]; 4 hrs after administration): -36 Δ/min.
- Changes in Heart Rate ([1]; 6 hrs after administration): -32 Δ/min.
- Changes in Heart Rate ([1]; 24 hrs after administration): -3 Δ/min.
- Changes in Systolic Blood Pressure ([2]; 1 hr after administration): -50 Δ mmHg
- Changes in Systolic Blood Pressure ([2]; 2 hrs after administration): -59 Δ mmHg
- Changes in Systolic Blood Pressure ([2]; 4 hrs after administration): -60 Δ mmHg
- Changes in Systolic Blood Pressure ([2]; 6 hrs after administration): -55 Δ mmHg
- Changes in Systolic Blood Pressure ([2]; 24 hrs after administration): -9 Δ mmHg
